Data: publication PMC7397174, “4-Arylthieno[2,3-b]pyridine-2-carboxamides Are a New Class of Antiplasmodial Agents” (Molecules, 2020)
Read-outs that look alike come from different tables or passages of the source.

Assays:
[1] = test system: HEK293T cells; experiment: in vitro; format: cell-based, human; details: 30 µM
Protocol: (§1) Cytotoxic effects of test compounds on eukaryotic cells were investigated using a HEK293T cell viability assay. First, the cell density of a HEK293T culture was determined. […] The supernatant was then aspirated and fresh culture medium was added to 200 μL into which the test compounds were previously added. All substances were previously dissolved in DMSO. […] The viability of the cells was then examined by adding PrestoBlue® Cell Viability Agent (Invitrogen, Carlsbad, CA, USA). The supernatant was removed, 10% PrestoBlue® was added in preheated PBS and the culture was incubated for 30 min at 37 °C. In cells with an active metabolism, the PrestoBlue dye is reduced, causing it to fluorescence. The fluorescence (λex = 560 nm, λem = 590 nm) was measured in an EnVision Multilable Plate Reader (Perkin Elmer, Waltham, MA, USA; integration time 0.1 sec/well).

[2] = test system: erythrocytic forms of P. falciparum (strain 3D7); experiment: Viability screening of antiplasmodial activity (SYBR-gold DNA quantification, 96 h); format: cell-based, Plasmodium falciparum; details: for SI (Selectivity index for 3D7 erythrocytic forms versus HEK293 cells): 3D7 versus HEK293 cells; for activity at 0.3 µM / activity at 3 µM: 96 h; for activity at 0.3 µM: read-out: Parasitemia (3D7) at 0.3 µM [%]; for activity at 3 µM: read-out: Parasitemia (3D7) at 3 µM [%]
[3] = molecular target: rPfGSK-3 (Plasmodium falciparum, UniProt O77344); experiment: KinaseGlo Plus assay for inhibition of PfGSK-3; format: biochemical
[4] = in vitro; format: cell-based, human; details: human, HEK293T Viability at 30 µM [%]
Protocol: as §1

[5] = test system: rHsGSK-3; experiment: KinaseGlo Plus assay for inhibition of HsGSK-3; format: biochemical, human; details: for rHsGSK-3 Activity at 10 µM [%]: remaining activity, calculated on DMSO controls, Table 4
Protocol: A commercial luminescence-based kinase assay was used to investigate the enzymatic activity of kinases and to test potential kinase inhibitors. The KinaseGlo Plus assay (KinaseGlo Plus, Promega, Madison, WI, USA) provides a linear luminescence signal at ATP concentrations up to 100 μM and offers high signal stability. First, the kinase to be investigated and a corresponding substrate in the presence of ATP are used to perform the kinase reaction. During the substrate phosphorylation, ATP is consumed depending on the kinase activity. Subsequently, luminescence is generated by means of luciferase which is contained in the KinaseGlo Reagent. The intensity of the luminescence signal depends on the amount of ATP remaining in the reaction mixture. The luminescence […] to the enzymatic activity of the kinase. The following approach was used for the kinase reaction: rPfGSK-3 (see 3.4) or rHsGSK-3 (Promega, Madison, WI, USA) (20 ng), GS-1 substrate (Promega, Madison, WI, USA) (12 µg) and ATP (6 µg) (Ultra Pure, Promega, Madison, WI, USA) in 1× kinase reaction buffer (40 mM Tris-HCl pH 7.5, 20 mM MgCl2, 0.1 mg/mL BSA; final reaction volume 5 µL). The kinase reaction was performed for 30 min at 30 °C. The reaction mixture was then mixed with KinaseGlo Reagent (5 µL) and incubated for 10 min at room temperature. The mixture was transferred to a white 384-well plate (NUNC, ThermoFisher, Waltham, MA, USA) and the luminescence signal was measured in an EnVision Multilable Plate Reader (PerkinElmer, Waltham, MA, USA; integration time 0.5 sec/well). For the investigation, potential kinase inhibitors could be added directly to the kinase reaction. All kinase inhibitors were dissolved in DMSO. By appropriate pre-dilution of the inhibitors in kinase reaction buffer the final DMSO concentration in the kinase reaction was at most 1%. As negative control 1% DMSO without substance was measured. Since the luminescence signal is […] proportional to the ATP concentration, a control reaction (reaction without kinase) was measured simultaneously. The difference between kinase reaction and control reaction corresponds to the kinase activity. Using GraphPad Prism (version 6) the measured values were plotted and normalized to the DMSO control.

[6] = Plasmodium falciparum, 3D7, strain 3D7, erythrocytic forms
[7] = Plasmodium falciparum, 0.3 µM, strain 3D7, calculated on DMSO controls
[8] = Plasmodium falciparum, 3 µM, strain 3D7, calculated on DMSO controls
[9] = read-out: rPfGSK-3 Activity at 10 µM [%], 10 µM, remaining activity, calculated on DMSO controls, Table 3
[10] = 10 µM, remaining activity, calculated on DMSO controls, Table 3, read-out: rPfGSK-3 Activity at 10 µM [%]

rPfGSK-3, sequence (O77344 entry or part of it): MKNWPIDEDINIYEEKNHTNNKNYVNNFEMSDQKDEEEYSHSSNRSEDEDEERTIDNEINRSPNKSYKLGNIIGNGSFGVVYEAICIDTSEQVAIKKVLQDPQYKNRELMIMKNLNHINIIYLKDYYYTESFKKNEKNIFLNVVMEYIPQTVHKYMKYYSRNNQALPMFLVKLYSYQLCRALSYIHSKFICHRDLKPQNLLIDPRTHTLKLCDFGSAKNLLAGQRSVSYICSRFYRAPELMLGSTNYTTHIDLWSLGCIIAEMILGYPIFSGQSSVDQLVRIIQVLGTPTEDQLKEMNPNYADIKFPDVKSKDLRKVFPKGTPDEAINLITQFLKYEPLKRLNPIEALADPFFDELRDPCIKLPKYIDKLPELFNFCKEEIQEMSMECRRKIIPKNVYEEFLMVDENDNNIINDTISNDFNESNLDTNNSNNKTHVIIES

SMILES | viability at 48 h, 30 µM [4] [%] | IC50 [2, 6] [nM] | activity at 0.3 µM [2, 7] [%] | activity at 3 µM [2, 8] [%] | rHsGSK-3 Activity at 10 µM [%] [5] [%] | further results
Cc1cccc(-c2c3c(nc4sc(C(=O)Nc5ccc(Cl)cc5)c(N)c24)CCCC3)c1 [Compound 17e, 3-Amino-N-(4-chlorophenyl)-4-(3-methylphenyl)-5,6,7,8-tetrahydrothieno[2,3-b]quinoline-2-carbox-amide] |  |  |  |  |  | HEK293T Viability at 30 µM [%] [1]: 57.9 ± 20.6%; Parasitemia (3D7) at 0.3 µM [%] ([2]; 0.3 µM, strain 3D7, calculated on DMSO controls): 5.0 ± 11.6%; Parasitemia (3D7) at 3 µM [%] ([2]; 3 µM, strain 3D7, calculated on DMSO controls): 4.7 ± 13.5%; rPfGSK-3 Activity at 10 µM [%] ([3]; 10 µM, remaining activity, calculated on DMSO controls, Table 3): 103.1 ± 10.7%
Nc1c(C(=O)Nc2ccc(Cl)cc2)sc2nc3c(c(-c4ccccc4)c12)CCC3 [Compound 17b, 3-Amino-N-(4-chlorophenyl)-4-phenyl-6,7-dihydro-5H-cyclopenta[b]thieno[3,2-e]pyridine-2-carboxamide] | 92.7 ± 11.7 | 192 | 7.2 ± 11.3 | 7.7 ± 14.7 |  | HEK293T Viability at 30 µM [%] ([1]; human, 48 h): 89.0 ± 15.8%; SI (Selectivity index for 3D7 erythrocytic forms versus HEK293 cells) [2]: >100; remaining activity at 10 µM [3, 9]: 104 ± 15.5%
Cc1cccc(-c2c(C#N)c(N)nc3sc(C(=O)NC4CC4)c(N)c23)c1 [Compound 9m, 3,6-Diamino-5-cyano-N-cyclopropyl-4-(3-methylphenyl)thieno[2,3-b]pyridine-2-carboxamide] | 74.3 ± 31.1 |  | 74.9 ± 15.7 | 88 ± 18.2 | 93.8 ± 2.1 | remaining activity at 10 µM [3, 10]: < 40%
Cc1cccc(-c2c(C#N)c(N)nc3sc(C(=O)NCCN4CCOCC4)c(N)c23)c1 [Compound 9n, 3,6-Diamino-5-cyano-N-(2-morpholinoethyl)-4-(3-methylphenyl)thieno[2,3-b]pyridine-2-carboxamide] | 70.9 ± 23.6 |  | 58.7 ± 25.9 | 91.6 ± 19.2 | 93.9 ± 3.2 | remaining activity at 10 µM [3, 10]: < 40%
N#Cc1c(N)nc2sc(C(=O)Nc3ccc(Cl)cc3)c(N)c2c1-c1ccccc1Cl [Compound 3] |  | 199 |  |  |  | IC50 ([2]; strain 3D7, erythrocytic forms): 199 nM; inhibition of human GSK-3 (in words) [5]: neither an inhibitor; inhibition of plasmodial GSK-3 (in words) [3]: neither an inhibitor
CNC(=O)c1sc2nc(N)c(C#N)c(-c3cccc(C)c3)c2c1N [Compound 9j, 3,6-Diamino-5-cyano-N-methyl-4-(3-methylphenyl)thieno[2,3-b]pyridine-2-carboxamide] | 67.2 ± 21.5 |  | 74.6 ± 28.6 | 108 ± 24.2 | 87.6 ± 7.4 | 
Nc1c(C(=O)Nc2ccc(F)cc2)sc2nc3c(c(-c4ccccc4)c12)CCC3 [Compound 17c, 3-Amino-N-(4-fluorophenyl)-4-phenyl-6,7-dihydro-5H-cyclopenta[b]thieno[3,2-e]pyridine-2-carboxamide] | 92.7 ± 11.7 | 71.6 | 23.6 ± 16.5 | 9.9 ± 17.1 |  | HEK293T Viability at 30 µM [%] ([1]; human, 48 h): 72.4 ± 23.4%; SI (Selectivity index for 3D7 erythrocytic forms versus HEK293 cells) [2]: >100; IC50 (3D7) [nM] ([2]; strain 3D7, erythrocytic forms): two-digit nanomolar range; remaining activity at 10 µM [3, 9]: 103 ± 6.2%
